# From patent publication US20250283871A1, “COMPOSITIONS AND METHODS FOR MODULATING THE INTERACTION BETWEEN SS18-SSX FUSION ONCOPROTEIN AND NUCLEOSOMES” (Dana-Farber Cancer Institute, Inc., priority 2020, published 2025)
# Columns and labels:
# Barr bodies (inactive X) = assay: Immunofluorescence, Barr body localization; type: cell-based, human; conditions: 293T cells, versus DMSO control
# Experimental: Immunofluorescent images were obtained as previously described (Daou et al. (2011) Pro. Nat. Acad. Sci. U.S.A 108:2747-2752). Following lentiviral infection and/or drug treatment, cells were prepared by fixation in 3% PFA-PBS and then were permeabilized with PBS 0.1% NP40. Following incubation with primary antibodies, the Anti-rabbit Alexa Fluor® 594 and Anti-mouse Alexa Fluor® 488 (Life Technologies) secondary antibodies were used for visualization. Staining with 4′,6-diamidino-2-phenylindole (DAPI) was used to visualize nuclei. Images were acquired using Zeiss Axio Imager Z2 microscope and images were processed using ImageJ program (NIH).
# [1] = test system: mammalian mononucleosomes from HEK293T cells; assay: Protein and peptide pull downs with mammalian mononucleosomes; type: binding, human; conditions: mammalian mononucleosomes
# Experimental: (§1) The flow through was removed, the immobilized bait was incubated with 1-2 μg of purified mammalian mono-nucleosomes from HEK293T cells, recombinant mono-nucleosomes (EpiCypher, 16-0006), recombinant H2AK119Ub mono-nucleosomes (EpiCypher, 16-0020) or recombinant protein for 3 hours at 4° C., and the beads were washed 3× with EB150 buffer and then eluted in 2×LDS with 200 mM DTT with heating at 95° C. for 5 minutes. The pull downs were then visualized by immunoblot analysis or colloidal blue staining.
# Mammalian mononucleosomes were purified from HEK293T cells similar to as previously described (Mashtalir et al. (2014) Mol. Cell 54:392-406). Cells were scraped from plates, washed with cold PBS, and centrifuged at 5,000 rpm for 5 min at 4° C. Pellets were resuspended in hypotonic buffer (EBO: 50 mM Tris HCl, pH 7.5, 1 mM EDTA, 1 mM MgCl2, 0.1% NP40 supplemented with 1 mM DTT, 1 mM PMSF, and protease inhibitor cocktail (Roche, C756U27) and incubated for 5 min on ice. The suspension was centrifuged at 5,000 rpm for 5 min at 4° C., and pellets were resuspended in 5 volumes of EB420 (EBO: 50 mM Tris HCl, pH 7.5, 420 mM NaCl, 1 mM MgCl2, 0.1% NP40 with supplemented with 1 mM DTT and 1 mM PMSF containing protease inhibitor cocktail (Roche, C756U27). Homogenate incubated on rotator for 1 hour at 4° C. The supernatant was then centrifuged at 20,000 rpm (30,000×g) for 1 hour at 4° C. using a SW32Ti rotor. Supernatant was then discarded and chromatin pellet was washed in MNAse buffer (20 mM Tris-HCl pH 7.5, 100 mM KCl, 2 mM MgCl2, 1 mM CaCl2, […] sucrose, 0.1% NP-40, and protease inhibitor cocktail) three times. Following MNase treatment (3 U/mL for 30 min at room temperature, Sigma-Aldrich), the reaction was quenched with 5 mM of EGTA and 5 mM of EDTA. The samples were then centrifuged at 20,000×g for 1 hour at 4° C. to obtain the soluble chromatin fraction. Soluble chromatin fraction was loaded onto 10-30% glycerol gradient (Mashtalir et al. (2014) Mol. Cell 54:392-406) and fractions containing mononucleosomes were isolated and concentrated using centrifugal filter (Amicon, EMD Millipore).
# BAF complex components = assay: anti-SMARCA4 (BRG1) IP mass spectrometry (Tables 7A-7C); type: cell-based, human; conditions: Aska-SS cells -/+ shSSX
# Experimental: Peptide abundance normalized to SMARCA4 abundance. […] SMARCC1, SS18, GFP, SMARCB1, and TBP levels are shown. […] T indicates 0-40 min timecourse; n=3 experimental replicates at each time point; error bars represent standard deviation.
# Nuclear extracts were quantified by Bradford assay and 150-200 μg of protein was incubated with 2 μg of antibody in Buffer EB300 (50 mM Tris pH 7.5, 0.1% NP-40, 1 mM EDTA, 1 mM MgCl2, […] with protease inhibitor (Roche, C756U27), 1 mM DTT and 1 mM phenylmethylsulfonyl fluoride (PMSF)) overnight at 4° C. Each sample was then incubated with Protein G Dynabeads® (Thermo Scientific) for 2-3 hours. Beads were washed three times with Buffer EB300 followed by elution with 20 μL of elution buffer (NuPage™ LDS buffer (2×) (Life Technologies) containing 100 mM DTT and water).
# [2] = test system: recombinant H2AK119Ub mono-nucleosomes; assay: Pull downs with WT or H2A K119Ub nucleosomes; type: binding
# Experimental: as §1
Compound,nucleosome binding in pull-down [1],Aska (shControl)/Aska (shSS18-SSX) LFQ Intensity (Norm to SMARCA4 Rep 1) (BAF complex components),Aska (shControl)/Aska (shSS18-SSX) LFQ Intensity (Norm to SMARCA4 Rep 2) (BAF complex components),other results
"CCCc1cc(C)[nH]c(=O)c1CNC(=O)c1cc(-c2ccc(N3CCN(C(C)C)CC3)nc2)cc2c1cnn2C(C)C [EZH2 inhibitor, reference compound]",–,–,–,SS18-SSX foci localized to Barr bodies after treatment (Barr bodies (inactive X)): no change to SS18-SSX foci localized to Barr bodies
SSX aa165-188: biotinylated 24-residue SSX peptide lacking the W164 residue,failed to do so,–,–,–
SSX aa166-188: biotinylated 23-residue SSX peptide lacking the W164 residue,failed to do so,–,–,–
BCL7C: BAF complex subunit quantified in the IP MS,–,1.744,1.537,–
mutation of the C-terminal acidic region of SSX to alanines: GST-SSX with acidic C-term DPEEDDE replaced by AAAAAAA (SGPKRGKHAWTHRLRERKQLVIYEEISAAAAAAA),–,–,–,"affinity to H2A K119Ub-decorated nucleosomes, pulldown ([2]; H3 immunoblot): relieved the preference of SSX for H2AK119Ub nucleosomes; SSX binding to nucleosomes ([2]; WT or H2A K119Ub nucleosomes): not altering SSX binding to nucleosomes"
ARID1B: BAF complex subunit quantified in the IP MS,–,0.7212,0.6498,–
